Where two headings read alike, the source gives them in different places. Marks after values point to notes of the source that are not given here.

Eight molecules from US20250236616A1, “IMMUNOMODULATING AZALIDES” (Zoetis Services LLC, priority 2021, published 2025) can be followed below.

Common to all, as to format: cell-based
Assay [1] relates to IL-1β. The experiment in a line: Whole bovine blood assay, LPS-induced IL-1β (inhibition / overstimulation). As to conditions: drug concentration giving overstimulation (OS) of LPS-induced IL-1β, top concentration 250 μM. The gist of the method:
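Fresh heparinized bovine whole blood was preincubated with compound at varying concentrations for 4 h at 37 °C, then stimulated with 1 μg/mL LPS for 18 h. Plasma IL-1β was measured by MSD chemiluminescent immunoassay and normalized to total protein. Values cover inhibition and concentration-dependent overstimulation.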

Assay [2] deals with TNF-α. In words: Whole bovine blood assay, LPS-induced TNF-α. As to conditions: fresh whole bovine blood, LPS stimulant, top drug concentration 250 μM. The gist of the method: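 Fresh heparinized bovine whole blood was preincubated with compound 4 h at 37 °C, then stimulated with LPS (final 1 μg/mL) for 18 h at 37 °C. Plasma TNF-α was quantified by MSD U-Plex chemiluminescent immunoassay, normalized to total protein (BCA), and IC50 taken for LPS-induced TNF-α inhibition.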

In assay [3] the test system is IL-6. The experiment in a line: Whole bovine blood assay, LPS-induced IL-6. As to conditions: fresh whole bovine blood, LPS stimulant, top drug concentration 250 μM.
Assay [4] has as its system BRD pathogens, M. haemolytica and P. multocida. In words: MIC screening panel, BRD pathogens (CLSI broth micro-dilution). The source says:
Primary screening of the compounds of the invention included the evaluation of antibacterial activity of analogs through determination of microbial inhibition concentration (MIC) as per CLSI guidelines. The screening panel included the relevant BRD pathogens: 1) M. haemolytica (e.g., 12726, 46571 and 49023, all AHDRCC; and 33396 (ATCC)); and 2) P. multocida (e.g., 34135 and 46572 (both AHDRCC) and 43137 (ATCC)). In some instances, H. somni (A700025K) pathogens were also included in the screening panel. The AHDRCC strains originated from the Zoetis BRD/SRD surveillance program and refer to the Animal Health Development and Research Culture Collection. In addition, the screen assessed S. aureus (29213 ATCC) as a representative Gram-positive isolate, E.faecalis (19433 ATCC) as a commensal gram-positive gastrointestinal bacterium and E. coli (100, 3110 and 25922 (ATCC)) for the evaluation of efflux potential. The screening panel BRD pathogens were assessed in determining antibacterial activity of the Formula (1) compounds.
All relevant BRD pathogens were initially screened at a top concentration of 64 μg/mL of a Formula (1) compound in an eleven-point dilution series. […] If an Example was purified further, the MICs moved […] essentially two dilutions across all strains tested in the screening panel.
In-Vitro MIC Model Compounds were analyzed for antibacterial activity against a panel of animal health specific gram-positive and gram-negative clinical strains by diluting compounds in DMSO to an appropriate stock concentration to determine the Minimal Inhibitory Concentration (MIC) via a semi-automated broth micro-dilution method (CLSI reference method) with QC strains and anti-microbial agent(s). Specifically, bacteria were grown overnight on TSA w/5% sheep blood agar plates and diluted in saline buffer to a McFarland Standard 0.5, then further diluted in cation-ion adjusted Mueller Hinton Broth to a final concentration of approximately 5×10^5 CFU/mL. 100 μL of inoculated media was added to 96-well plate(s) with 3 μL of serially diluted compound in each row. Depending on strain (see CLSI reference method), bacteria were incubated 18-22 hours at 35-37° C. in ambient air, with 5% CO2 or anaerobically (up to 48 hours).

[5] abbreviates: Table B, at least one BRD pathogenic strain, top concentration 64 μg/mL, read-out: MIC flag (*) for BRD pathogenic strains.
[6] abbreviates: Table C, at least one BRD pathogenic strain, top concentration 64 μg/mL.

Take `CC[C@H]1OC(=O)[C@H](C)[C@@H](O[C@H]2C[C@@](C)(OC)[C@](O)(CCl)[C@H](C)O2)[C@H](C)[C@@H](O[C@@H]2O[C@H](C)C[C@H](N(C)S(=O)(=O)c3ccc(Cl)cc3)[C@H]2O)[C@](C)(O)C[C@@H](C)CN[C@H](C)[C@@H](O)[C@]1(C)O` [Example A4-1, 4-chloro-N-((2S,3R,4S,6R)-2-(((2R,3S,4R,5R,8R,10R,11R,12S,13S,14R)-13-(((2R,4R,5S,6S)-5-(chloromethyl)-5-hydroxy-4-methoxy-4,6-dimethyltetrahydro-2H-pyran-2-yl)oxy)-2-ethyl-3,4,10-trihydroxy-3,5,8,10,12,14-hexamethyl-15-oxo-1-oxa-6-azacyclopentadecan-11-yl)oxy)-3-hydroxy-6-methyltetrahydro-2H-pyran-4-yl)-N-methylbenzenesulfonamide]: the minimal effective concentration in assay [1] (Bos taurus, 18 h) amounted to 12 µM. The IC50 in assay [2] (Bos taurus) worked out at 44 µM; in assay [3] (Bos taurus), 26 µM. The MIC in assay [4] (BRD pathogens M. haemolytica and P. multocida, read-out: antibacterial / non-antibacterial (MIC class)) is more than 64 µg/mL.
`CC[C@H]1OC(=O)[C@H](C)[C@@H](O)[C@H](C)[C@@H](O[C@@H]2O[C@H](C)C[C@H](N(C)S(=O)(=O)c3scnc3C)[C@H]2Oc2ccc(F)cc2)[C@](C)(O)C[C@@H](C)CN[C@H](C)[C@@H](O)[C@]1(C)O` [Example A-26]: the minimal effective concentration in assay [1] is on record as 16 µM. Further, the IC50 in assay [2] is 130 µM; in assay [3], 49 µM. Besides, in assay [4] (Table A, at least one BRD pathogenic strain, top concentration 64 μg/mL), the “MIC flag (*) for BRD pathogenic strains” value is “A-26* (MIC ≤64 μg/mL for at least one BRD pathogenic strain)”.
In assay [1] (Bos taurus, 18 h), `CCCNC[C@]1(O)[C@H](C)O[C@@H](O[C@H]2[C@H](C)[C@@H](O[C@@H]3O[C@H](C)C[C@H](N(C)S(=O)(=O)c4cccnc4)[C@H]3O)[C@](C)(O)C[C@@H](C)CN[C@H](C)[C@@H](O)[C@](C)(O)[C@@H](CC)OC(=O)[C@@H]2C)C[C@@]1(C)OC` [Example B-12, N-((2S,3R,4S,6R)-2-(((2R,3S,4R,5R,8R,10R,11R,12S, 13S,14R)-2-ethyl-3,4,10-trihydroxy-13-(((2R,4R,5S,6S)-5-hydroxy-4-methoxy-4,6-dimethyl-5-((propylamino)methyl)tetrahydro-2H-pyran-2-yl)oxy)-3,5,8,10,12,14-hexamethyl-15-oxo-1-oxa-6-azacyclopentadecan-11-yl)oxy)-3-hydroxy-6-methyltetrahydro-2H-pyran-4-yl)-N-methylpyridine-3-sulfonamide] came in with a minimal effective concentration of more than 250 µM. For the same molecule, the MIC in assay [4] (setting [5]) is not above 64 µg/mL.
Take `CCCNC[C@]1(O)[C@H](C)OC(O[C@H]2[C@H](C)[C@@H](O[C@@H]3O[C@H](C)C[C@H](N(C)S(=O)(=O)c4cc(Br)c(Br)s4)[C@H]3Oc3ccc(OC)cc3)[C@](C)(O)C[C@@H](C)CN[C@H](C)[C@@H](O)[C@](C)(O)[C@@H](CC)OC(=O)[C@@H]2C)C[C@@]1(C)OC` (stereo partly drawn) [Example B-105, 4,5-dibromo-N-[(2S,3R,4S,6R)-2-[[(2R,3S,4R,5R,8R,10R,11R, 12S, 13S, 14R)-2-ethyl-3,4, 10-trihydroxy-13-[(4R,5S,6S)-5-hydroxy-4-methoxy-4,6-dimethyl-5-(propylaminomethyl)oxan-2-yl]oxy-3,5,8, 10, 12,14-hexamethyl-15-oxo-1-oxa-6-azacyclopentadec-11-yl]oxy]-3-(4-methoxyphenoxy)-6-methyloxan-4-yl]-N-methylthiophene-2-sulfonamide]: in assay [1] (Bos taurus, 18 h), the minimal effective concentration stood at 3 µM. The IC50 in assay [2] (Bos taurus) amounted to 12 µM; in assay [3] (Bos taurus), 7 µM. Moreover, in assay [4] (setting [5]), the MIC is not above 64 µg/mL.
In assay [1] (Bos taurus, 18 h), `CC[C@H]1OC(=O)[C@H](C)[C@@H](OC2CC(C)(OC)C(O)(CN3CCCCC3)[C@@H](C)O2)[C@H](C)[C@@H](O[C@@H]2O[C@H](C)C[C@H](N(C)S(=O)(=O)c3ccc(Cl)cc3)[C@H]2O)[C@](C)(O)C[C@@H](C)CN(C)[C@H](C)[C@@H](O)[C@]1(C)O` (stereo partly drawn) [Example C-38, 4-chloro-N-((2S,3R,4S,6R)-2-(((2R,3S,4R,5R,8R,10R,11R,12S,13S,14R)-2-ethyl-3,4,10-trihydroxy-13-(((6R)-5-hydroxy-4-methoxy-4,6-dimethyl-5-(piperidin-1-ylmethyl)tetrahydro-2H-pyran-2-yl)oxy)-3,5,6,8, 10, 12, 14-heptamethyl-15-oxo-1-oxa-6-azacyclopentadecan-11-yl)oxy)-3-hydroxy-6-methyltetrahydro-2H-pyran-4-yl)-N-methylbenzenesulfonamide] came in with a minimal effective concentration of 28 µM. Besides, the IC50 in assay [2] (Bos taurus) worked out at 9 µM; in assay [3] (Bos taurus) it was 4 µM. For the same molecule, the MIC in assay [4] (Table C, at least one BRD pathogenic strain, top concentration 64 μg/mL, read-out: MIC flag (*) for BRD pathogenic strains) was not above 64 µg/mL.
In assay [1], `CC(=O)O.CC[C@H]1OC(=O)[C@H](C)[C@@H](O[C@H]2C[C@@](C)(OC)[C@](O)(CN3CCCCC3)[C@H](C)O2)[C@H](C)[C@@H](O[C@@H]2O[C@H](C)C[C@H](N(C)S(=O)(=O)Nc3ccc(C(F)(F)F)cc3)[C@H]2O)[C@](C)(O)C[C@@H](C)CN(C)[C@H](C)[C@@H](O)[C@]1(C)O` [Example C-57, (2R,3S,4R,5R,8R,10R,11R,12S,13S,14R)-2-ethyl-3,4, 10-trihydroxy-13-[(2R,4R,5S,6S)-5-hydroxy-4-methoxy-4,6-dimethyl-5-(piperidin-1-ylmethyl)oxan-2-yl]oxy-11-[(2S,3R,4S,6R)-3-hydroxy-6-methyl-4-[methyl-[[4-(trifluoromethyl)phenyl]sulfamoyl]amino]oxan-2-yl]oxy-3,5,6,8, 10, 12, 14-heptamethyl-15-oxo-1-oxa-6-azacyclopentadecane, acetic acid] gave a minimal effective concentration of 16 µM. For the same molecule, the half-maximal inhibitory concentration (IC50) in assay [2] came to 6 µM; in assay [3], 9 µM. Further, the “MIC flag (*) for BRD pathogenic strains” value in assay [4] (setting [6]) was “C-57* (MIC ≤64 μg/mL for at least one BRD pathogenic strain)”.
Take `CC(=O)O.CCCN1C[C@H](C)C[C@@](C)(O)[C@H](O[C@@H]2O[C@H](C)C[C@H](N(C)S(=O)(=O)Nc3ccc(C(F)(F)F)cc3)[C@H]2O)[C@@H](C)[C@H](O[C@H]2C[C@@](C)(OC)[C@](O)(CN3CCCCC3)[C@H](C)O2)[C@@H](C)C(=O)O[C@H](CC)[C@@](C)(O)[C@H](O)[C@H]1C` [Example C-58, (2R,3S,4R,5R,8R,10R,11R,12S,13S,14R)-2-ethyl-3,4,10-trihydroxy-13-[(2R,4R,5S,6S)-5-hydroxy-4-methoxy-4,6-dimethyl-5-(piperidin-1-ylmethyl)oxan-2-yl]oxy-11-[(2S,3R,4S,6R)-3-hydroxy-6-methyl-4-[methyl-[[4-(trifluoromethyl)phenyl]sulfamoyl]amino]oxan-2-yl]oxy-3,5,8, 10, 12,14-hexamethyl-15-oxo-6-propyl-1-oxa-6-azacyclopentadecane, acetic acid]: the minimal effective concentration in assay [1] turned out to be 12 µM. Besides, the IC50 worked out at 9 µM in assay [2] and 13 µM in assay [3]. In addition, the “MIC flag (*) for BRD pathogenic strains” value in assay [4] (setting [6]) is “C-58* (MIC ≤64 μg/mL for at least one BRD pathogenic strain)”.
“(2R,3S,4R,5R,8R,10R,11R,12S,13S,14R)-2-ethyl-3,4,10-trihydroxy-13-[(2R,4R,5S,6S)-5-hydroxy-4-methoxy-4,6-dimethyl-5-[(3,3,3-trifluoropropylamino)methyl]oxan-2-yl]oxy-11-[(2S,3R,4S,6R)-3-hydroxy-6-methyl-4-[methyl-[[4-(trifluoromethyl)phenyl]sulfamoyl]amino]oxan-2-yl]oxy-3,5,8, 10, 12,14-hexamethyl-15-oxo-1-oxa-6-azacyclopentadecane [Example B-65]” came in with a minimal effective concentration in assay [1] of 6 µM. Also, the IC50 is 9 µM in assay [2] and 15 µM in assay [3]. The “MIC flag (*) for BRD pathogenic strains” value in assay [4] (Table B, at least one BRD pathogenic strain, top concentration 64 μg/mL) was “B-65* (MIC ≤64 μg/mL for at least one BRD pathogenic strain)”.
